Measured values taken from ChEMBL document CHEMBL1145691, “Hypoglycemic activity of some triterpenoid glycosides” (1997).

What was measured:
Type in all cases: functional
Conditions in all cases: route intraperitoneal
Mus musculus [1] = test: Hypoglycemic activity in diabetic KK-Ay mouse at 5 mg/kg, ip assessed as blood glucose level per 100 mL blood after 7 hrs
Mus musculus [2] = test: Hypoglycemic activity in normal ddY mouse at 5 mg/kg, ip assessed as blood glucose level per 100 mL blood after 4 hrs
Mus musculus [3] = test: Hypoglycemic activity in diabetic KK-Ay mouse at 5 mg/kg, ip assessed as blood glucose level per 100 mL blood after 4 hrs
Mus musculus [4] = test: Hypoglycemic activity in normal ddY mouse at 5 mg/kg, ip assessed as blood glucose level per 100 mL blood after 7 hrs
Mus musculus [5] = test: Hypoglycemic activity in normal ddY mouse at 1 mg/kg, ip assessed as blood glucose level per 100 mL blood after 4 hrs
Mus musculus [6] = test: Hypoglycemic activity in normal ddY mouse at 1 mg/kg, ip assessed as blood glucose level per 100 mL blood after 7 hrs
Mus musculus [7] = test: Hypoglycemic activity in diabetic KK-Ay mouse at 1 mg/kg, ip assessed as blood glucose level per 100 mL blood after 4 hrs
Mus musculus [8] = test: Hypoglycemic activity in diabetic KK-Ay mouse at 1 mg/kg, ip assessed as blood glucose level per 100 mL blood after 7 hrs
Mus musculus [9] = test: Hypoglycemic activity in diabetic KK-Ay mouse at 50 mg/kg, ip assessed as blood glucose level per 100 mL blood after 7 hrs
Mus musculus [10] = test: Hypoglycemic activity in normal ddY mouse at 50 mg/kg, ip assessed as blood glucose level per 100 mL blood after 7 hrs
Mus musculus [11] = test: Hypoglycemic activity in diabetic KK-Ay mouse at 50 mg/kg, ip assessed as blood glucose level per 100 mL blood after 4 hrs
Mus musculus [12] = test: Hypoglycemic activity in normal ddY mouse at 50 mg/kg, ip assessed as blood glucose level per 100 mL blood after 4 hrs

Compound	Activity (Mus musculus [1]) [mg/dL]	Activity (Mus musculus [2]) [mg/dL]	Activity (Mus musculus [3]) [mg/dL]	Activity (Mus musculus [4]) [mg/dL]	Activity (Mus musculus [5]) [mg]	Activity (Mus musculus [6]) [mg]	Activity (Mus musculus [7]) [mg]	Activity (Mus musculus [8]) [mg]	Activity (Mus musculus [9]) [mg]	Activity (Mus musculus [10]) [mg]	Activity (Mus musculus [11]) [mg]	Activity (Mus musculus [12]) [mg]
COc1ccc(/C=C/C(=O)O[C@@H]2[C@H](O)[C@@H](O[C@@H]3O[C@@H](C)[C@H](O[C@@H]4OC[C@@H](O[C@@H]5O[C@H](CO)[C@H](O)[C@H](O)[C@H]5O)[C@H](O)[C@H]4O)[C@@H](O)[C@H]3O)[C@H](OC(=O)[C@]34CCC(C)(C)C[C@@H]3C3=CC[C@@H]5[C@@]6(C)C[C@H](O[C@@H]7O[C@H](CO)[C@@H](O)[C@H](O)[C@H]7O)[C@H](O)[C@@](C)(C(=O)O)[C@@H]6CC[C@@]5(C)[C@]3(CO)CC4)O[C@@H]2C)cc1 [DESMETHOXYSENEGIN II]	325	199	306	195								
COc1ccc(/C=C/C(=O)O[C@@H]2[C@H](O[C@@H]3O[C@@H](C)[C@H](O)[C@@H](O)[C@H]3O)[C@@H](O[C@@H]3O[C@@H](C)[C@H](O[C@@H]4OC[C@@H](O[C@@H]5O[C@H](CO)[C@H](O)[C@H](O)[C@H]5O)[C@H](O)[C@H]4O)[C@@H](O)[C@H]3O)[C@H](OC(=O)[C@]34CCC(C)(C)C[C@@H]3C3=CC[C@@H]5[C@@]6(C)C[C@H](O[C@@H]7O[C@H](CO)[C@@H](O)[C@H](O)[C@H]7O)[C@H](O)[C@@](C)(C(=O)O)[C@@H]6CC[C@@]5(C)[C@]3(CO)CC4)O[C@@H]2C)cc1 [SENEGIN III]	146	151	204	160	167	172	195	210				
CCCCNC(=O)NS(=O)(=O)c1ccc(C)cc1 [TOLBUTAMIDE]									370	170	495	160
COc1ccc(/C=C/C(=O)O[C@@H]2[C@H](O[C@@H]3O[C@@H](C)[C@H](O)[C@@H](O)[C@H]3O)[C@@H](O[C@@H]3O[C@@H](C)[C@H](O[C@@H]4OC[C@@H](O[C@@H]5O[C@H](CO)[C@H](O)[C@H](O)[C@H]5O)[C@H](O)[C@H]4O)[C@@H](O[C@H]4OC[C@](O)(CO)[C@H]4O)[C@H]3O)[C@H](OC(=O)[C@]34CCC(C)(C)C[C@@H]3C3=CC[C@@H]5[C@@]6(C)C[C@H](O[C@@H]7O[C@H](CO)[C@@H](O)[C@H](O)[C@H]7O)[C@H](O)[C@@](C)(C(=O)O)[C@@H]6CC[C@@]5(C)[C@]3(CO)CC4)O[C@@H]2C)cc1 [SENEGIN IV]	388	187	276	169	177	171	207	276				
COc1ccc(/C=C/C(=O)O[C@@H]2[C@H](O)[C@@H](O[C@@H]3O[C@@H](C)[C@H](O[C@@H]4OC[C@@H](O[C@@H]5O[C@H](CO)[C@H](O)[C@H](O)[C@H]5O)[C@H](O)[C@H]4O)[C@@H](O)[C@H]3O)[C@H](OC(=O)[C@]34CCC(C)(C)C[C@@H]3C3=CCC5[C@@]6(C)C[C@H](O[C@@H]7O[C@H](CO)[C@@H](O)[C@H](O)[C@H]7O)[C@H](O)[C@@](C)(C(=O)O)[C@@H]6CC[C@@]5(C)[C@]3(CO)CC4)O[C@@H]2C)cc1OC (stereo partly specified) [SENEGIN II]	182	137	217	140	139	149	226	305				
COc1cc(/C=C/C(=O)OC[C@@]2(O[C@H]3O[C@H](COC(C)=O)[C@@H](OC(=O)/C=C/c4ccc(O)c(OC)c4)[C@H](O[C@@H]4O[C@H](COC(C)=O)[C@@H](O[C@@H]5O[C@H](CO)[C@@H](O)[C@H](O)[C@H]5O)[C@H](O)[C@H]4O)[C@H]3O[C@@H]3O[C@H](CO)[C@@H](O)[C@H](O)[C@H]3O)O[C@H](CO)[C@@H](O)[C@@H]2OC(=O)c2ccccc2)ccc1O [SENEGOSE A]	368	197	401	199								
